Source: patent publication US20240058337A1, “Managing Side Effects in T Cell Therapy” (Innovative Cellular Therapeutics Holdings, Ltd., priority 2022, published 2024)

Legend:
Type in all cases: in vivo, human
[1] = test system: colorectal cancer (CRC) patients; experiment: Clinical trial: response and disease control to CAR T therapy with or without dasatinib; conditions: patients who got dasatinib
Experimental: (§1) This system was implemented in a clinical trial involving 35 colorectal cancer (CRC) patients, which were treated with mixed population of cells including GCC CAR T cells. Diarrhea, a common side effect, typically presented as early as day 7 (median=9, range 7-15) at a grade two severity or higher. The primary treatment for this was immediate administration of infliximab and, in some cases, dasatinib.
(§2) For the 1×10^6 CAR T/kg of body weight dose, half of the patients managed their diarrhea through supportive care and antidiarrheal medication. Around 85% experienced grade 2 or higher diarrhea, 67% of whom responded well to a single dose of infliximab. At a higher dose of 2×10^6 CAR T/kg bodyweight, only 13% of patients could control diarrhea with supportive care or antidiarrheal drugs, and all patients experienced a grade 2 or higher diarrhea, but only 43% responded to a single infliximab dose. […] In such cases, dasatinib was administered at 100 mg/day for over ten consecutive days until the patient's side effects reduced to grade 1 or less, and the patient was ready for discharge.

[2] = test system: Cytokine Release Syndrome (CRS); experiment: Cytokine Release Syndrome (CRS) management after CAR T therapy; conditions: grade 2 fever not resolved within 6 hours with conventional antipyretic methods
Experimental: This fever typically occurs earliest on day 3 (median is day 5, range is day 3-12). Tocilizumab administration results in remission in 90% of cases. However, if 24 hours after administering tocilizumab, the patient still presents with a grade 2 or higher fever or a refractory fever, treatment with corticosteroids should be initiated following ASCO guidelines. The remaining 10% of patients typically responds well to corticosteroids. If there is no improvement within 24 hours after this step, the administration of dasatinib at 100 mg once daily for 2-3 days can be administered.

[3] = test system: colorectal cancer (CRC) patients; experiment: Clinical trial of mixed population of cells including GCC CAR T cells: diarrhea side effect and its management
Experimental: as §1, §2

## Cc1nc(Nc2ncc(C(=O)Nc3c(C)cccc3Cl)s2)cc(N2CCN(CCO)CC2)n1 [dasatinib]
[1]; 1 million cells/kg
  Disease Control Rate: 33.3%
  Response Rate to CAR T Therapy: 0%
[1]; 2 million+ cells/kg
  Disease Control Rate: 75%
  Response Rate to CAR T Therapy: 50%

## Tocilizumab
[2]
  remission of grade 2 fever (CRS) after tocilizumab administration, cases: 90%

## infliximab
[3]; 1×10^6 CAR T/kg of body weight
  patients with grade 2 or higher diarrhea who responded well to a single dose of infliximab: 67%
[3]; 2×10^6 CAR T/kg bodyweight
  patients with grade 2 or higher diarrhea who responded to a single infliximab dose: 43%
[3]; 3×10^6 CAR T/kg body weight
  patients who benefitted from a single dose of infliximab: fewer patients benefitted
